tested on: Hedgehog pathway; experiment: Hedgehog Pathway Cellular Differentiation Assay (alkaline phosphatase production in C3H10T1/2 cells with Shh ligand); format: cell-based; conditions: 3 μM compound, Shh ligand conditioned media, 72 h, alkaline phosphatase
Summary of the method: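 C3H10T1/2 cells in DMEM/2% FBS with Shh-conditioned medium were treated 72 h with compound, threefold dilutions from 30 μM to 3 nM. After RIPA lysis, alkaline phosphatase was read with pNp (1 mg/mL, diethanolamine pH 9.8) at 30 °C, absorbance 405 nm. Percent inhibition and IC50 came from absorbance.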

| SMILES | % Inhibition at 3 μM [%] |
| --- | --- |
| Cc1ccc(-c2ccc3cc[nH]c3n2)cc1NC(=O)c1ccc(OCc2ccccn2)cc1 [Example 3, N-[5-(5,7-diazabicyclo[4.3.0]nona-2,4,8,10-tetraen-4-yl)-2-methyl-phenyl]-4-(pyridin-2-ylmethoxy)benzamide] | 67.3 |

same assay, conditions: Mus musculus, C3H 10T1/2, 3 μM compound, Shh ligand conditioned media, 72 h, alkaline phosphatase

| SMILES | inhibition at 3 µM [%] |
| --- | --- |
| Cc1cnc(-c2ccc(C)c(NC(=O)c3ccc(OCc4ccccn4)cc3)c2)[nH]1 [Example 25, N-[2-methyl-5-(5-methyl-1H-imidazol-2-yl)phenyl]-4-(pyridin-2-ylmethoxy)benzamide] | 79.5 |
| Cc1ccc(-c2ncc[nH]2)cc1NC(=O)c1ccc(OCc2cccc(N3CCOCC3)n2)cc1 [Example 129, N-[5-(1H-imidazol-2-yl)-2-methylphenyl]-4-[(6-morpholin-4-ylpyridin-2-yl)methoxy]benzamide] | 82.8 |
| Cc1ccc(-c2cc(C(F)(F)F)n[nH]2)cc1NC(=O)c1ccc(OCc2ccccn2)cc1 [Example 37, N-[2-methyl-5-[5-(trifluoromethyl)-2H-pyrazol-3-yl]phenyl]-4-(pyridin-2-ylmethoxy)benzamide] | 38.2 |
| Cc1ccc(-c2c(C)nn(C)c2C)cc1NC(=O)c1ccc(OCc2ccccn2)cc1 [Example 35, N-[2-methyl-5-(1,3,5-trimethylpyrazol-4-yl)phenyl]-4-(pyridin-2-ylmethoxy)benzamide] | 76.8 |
| Cc1ccc(-c2ncc[nH]2)cc1NC(=O)c1ccc(OCc2ncccc2O)cc1 [Example 144, N-(5-(1H-imidazol-2-yl)-2-methylphenyl)-4-((3-hydroxypyridin-2-yl)methoxy)benzamide] | 8.8 |
| COc1ccnc(COc2ccc(C(=O)Nc3cc(-c4nccn4C)ccc3C)cc2)c1 [Example 93, 4-[(4-methoxypyridin-2-yl)methoxy]-N-[2-methyl-5-(1-methyl-1H-imidazol-2-yl)phenyl]benzamide] | 79.9 |
| Cc1ccc(-c2ncc[nH]2)cc1NC(=O)c1ccc(OCc2cccc(OCCN(C)C)n2)cc1 [Example 124, N-(5-(1H-imidazol-2-yl)-2-methylphenyl)-4-((6-(2-(dimethylamino)ethoxy)pyridin-2-yl)methoxy)benzamide] | 46.8 |
| Cc1ccc(-c2ncc[nH]2)cc1NC(=O)c1ccc(OCc2ncccc2N2CCN(C)CC2)cc1 [Example 138, N-(5-(1H-imidazol-2-yl)-2-methylphenyl)-4-((3-(4-methylpiperazin-1-yl)pyridin-2-yl)methoxy)benzamide] | 42.2 |
| Cc1ccc(-c2ncc(CN3CCN(C)CC3)s2)cc1NC(=O)c1ccc(OCc2ccccn2)cc1 [Example 2, N-[2-methyl-5-[5-[(4-methylpiperazin-1-yl)methyl]1,3-thiazol-2-yl]phenyl]-4-(pyridin-2-ylmethoxy)benzamide] | 72.3 |
| Cc1ccc(-c2ncc(C(F)(F)F)[nH]2)cc1NC(=O)c1ccc(OCc2ccccn2)cc1 [Example 28, N-{2-methyl-5-[5-(trifluoromethyl)-1H-imidazol-2-yl]phenyl}-4-(pyridin-2-ylmethoxy)benzamide] | 91.9 |
| COc1cc(COc2ccc(C(=O)Nc3cc(-c4nccn4C)ccc3C)cc2)cc(OC)c1 [Example 50, 4-[(3,5-dimethoxyphenyl)methoxy]-N-[2-methyl-5-(1-methylimidazol-2-yl)phenyl]benzamide] | 80.5 |
| Cc1nc(-c2ccc(C)c(NC(=O)c3ccc(OCc4ccccn4)cc3)c2)c[nH]1 [Example 24, N-[2-methyl-5-(2-methyl-1H-imidazol-4-yl)phenyl]-4-(pyridin-2-ylmethoxy)benzamide] | 81.1 |
| Cc1ccc(-c2ncc[nH]2)cc1NC(=O)c1ccc(NCc2ccccn2)cc1 [Example 117, N-(5-(1H-imidazol-2-yl)-2-methylphenyl)-4-(pyridin-2-ylmethylamino)benzamide] | 68.8 |
| Cc1ccc(-c2ncc[nH]2)cc1NC(=O)c1ccc(OCc2ncccc2Br)cc1 [Example 120, 4-[(3-bromopyridin-2-yl)methoxy]-N-[5-(1H-imidazol-2-yl)-2-methylphenyl]benzamide] | 78.3 |
| COc1cc(COc2ccc(C(=O)Nc3cc(-c4ncc(C)n4C)ccc3C)cc2)cc(OC)c1 [Example 48, 4-[(3,5-dimethoxyphenyl)methoxy]-N-[5-(1,5-dimethylimidazol-2-yl)-2-methyl-phenyl]benzamide] | 81.5 |
| Cc1ccc(-c2cccc(N)n2)cc1NC(=O)c1ccc(OCc2ccccn2)cc1 [Example 8, N-[5-(6-aminopyridin-2-yl)-2-methyl-phenyl]-4-(pyridin-2-ylmethoxy)benzamide] | 66.5 |
| Cc1ccc(-c2cccnc2)cc1NC(=O)c1ccc(OCc2ccccn2)cc1 [Example 7, N-(2-methyl-5-pyridin-3-yl-phenyl)-4-(pyridin-2-ylmethoxy)benzamide] | 70.8 |
| Cc1ccc(-c2ncc[nH]2)cc1NC(=O)c1ccc(OCC2CCCCN2C)cc1 (stereo not shown) [Example 143, N-(5-(1H-imidazol-2-yl)-2-methylphenyl)-4-((1-methylpiperidin-2-yl)methoxy)benzamide] | 62.3 |
| Cc1ccc(-c2ccncc2)cc1NC(=O)c1ccc(OCc2ccccn2)cc1 [Example 11, N-(2-methyl-5-pyridin-4-yl-phenyl)-4-(pyridin-2-ylmethoxy)benzamide] | 75 |
| Cc1cc(F)c(-c2ncc[nH]2)cc1NC(=O)c1ccc(OCc2ccccn2)cc1 [Example 102, N-[4-fluoro-5-(1H-imidazol-2-yl)-2-methylphenyl]-4-(pyridin-2-ylmethoxy)benzamide] | 87.1 |
| Cc1ccc(-c2ncc[nH]2)cc1NC(=O)c1ccc(OCc2cc3c(cc2Cl)OCO3)cc1 [Example 57, 4-[(6-chloro-1,3-benzodioxol-5-yl)methoxy]-N-[5-(1H-imidazol-2-yl)-2-methylphenyl]benzamide] | 73.6 |
| COc1cc(COc2ccc(C(=O)Nc3cc(-c4nc(C)c[nH]4)ccc3C)cc2)cc(OC)c1 [Example 43, 4-[(3,5-dimethoxyphenyl)methoxy]-N-[2-methyl-5-(4-methyl-1H-imidazol-2-yl)phenyl]benzamide] | 81.4 |
| Cc1ccc(-c2nc(C3CC3)c[nH]2)cc1NC(=O)c1ccc(OCc2ccccn2)cc1 [Example 87, N-[5-(4-cyclopropyl-1H-imidazol-2-yl)-2-methylphenyl]-4-(pyridin-2-ylmethoxy)benzamide] | 74.8 |
| Cc1ccc(-c2ncc[nH]2)cc1NC(=O)c1ccc(Oc2ccccc2)nc1 [Example 145, N-[5-(1H-imidazol-2-yl)-2-methyl-phenyl]-6-phenoxy-pyridine-3-carboxamide] | 67.1 |
| Cc1ccc(-c2ncc[nH]2)cc1NC(=O)c1ccc(OCc2ccccc2C(F)(F)F)cc1 [Example 64, N-[5-(1H-imidazol-2-yl)-2-methylphenyl]-4-{[2-(trifluoromethyl)benzyl]oxy}benzamide] | 79.6 |
| Cc1ccc(-c2ncc[nH]2)cc1NC(=O)c1ccc(COc2ccccc2C#N)cc1 [Example 133, 4-[(2-cyanophenoxy)methyl]-N-[5-(1H-imidazol-2-yl)-2-methylphenyl]benzamide] | 77 |
| Cc1ccc(-c2cnc3ccccc3n2)cc1NC(=O)c1ccc(OCc2ccccn2)cc1 [Example 22, N-(2-methyl-5-quinoxalin-2-yl-phenyl)-4-(pyridin-2-ylmethoxy)benzamide] | 60.7 |
| Cc1ccc(-c2ncn(C)c2CO)cc1NC(=O)c1ccc(OCc2ccccn2)cc1 [Example 78, N-{5-[5-(hydroxymethyl)-1-methyl-1H-imidazol-4-yl]-2-methylphenyl}-4-(pyridin-2-ylmethoxy)benzamide] | 75.1 |
| Cc1ccc(-c2cnn(C)c2)cc1NC(=O)c1ccc(OCc2ccccn2)cc1 [Example 33, N-[2-methyl-5-(1-methylpyrazol-4-yl)phenyl]-4-(pyridin-2-ylmethoxy)benzamide] | 54.7 |
| Cc1cc(Cl)c(-c2nccn2C)cc1NC(=O)c1ccc(OCc2ccccn2)cc1 [Example 74, N-[4-chloro-2-methyl-5-(1-methyl-1H-imidazol-2-yl)phenyl]-4-(pyridin-2-ylmethoxy)benzamide] | 76.2 |

Source: patent US20100311748A1, “HETEROCYCLIC AMIDES USEFUL FOR THE TREATMENT OF CANCER AND PSORIASIS” (ASTRAZENECA AB, priority 2007, published 2010)
